22 molecules from patent US8530490B2, “Uracil compound or salt thereof having human deoxyuridine triphosphatase inhibitory activity” (Taiho Pharmaceutical Co., Ltd., priority 2008, dated 2013) can be followed below.

What is called IC50 is the concentration at which inhibition is half-maximal.

Structures are written as SMILES.

This assay deals with human dUTPase (Homo sapiens (Human), UniProt P33316). Put plainly: Human dUTPase inhibitory effect: production of [5-3H]dUMP from [5-3H]dUTP, measured by HPLC with flow scintillation. The class given is biochemical. The following applies: [5-3H]dUMP production from [5-3H]dUTP, 37° C., 15 minutes. The method, then:
The inhibitory activity of the compound of the present invention against human dUTPase was determined by measuring the production of [5-^3H]deoxyuridine monophosphate (hereinafter, referred to as [5-^3H]dUMP) from [5-^3H]deoxyuridine triphosphate (hereinafter, referred to as [5-^3H]dUTP) according to a method shown below.
Specifically, 0.2 mL in total of a solution containing 0.02 mL of 1 μM dUTP (including 588 Bq/mL [5-3H]dUTP), 0.05 mL of a 0.2 M Tris buffer solution (pH 7.4), 0.05 mL of 16 mM magnesium chloride, 0.02 mL of 20 mM 2-mercaptoethanol, 0.02 mL of a 1% aqueous solution of fetal bovine serum-derived albumin, 0.02 mL of varying concentrations of test compound solutions or pure water as a control, and 0.02 mL of a solution of human dUTPase (expressed using E. coli and purified) was reacted at 37° C. for 15 minutes. Immediately after the reaction, the solution was heated at 100° C. for 1 minute to terminate the reaction, followed by centrifugation at 15000 rpm for 2 minutes. An aliquot (150 μL) of the supernatant thus obtained by centrifugation was analyzed using an Atlantis dC18 column (manufactured by Waters Corp., 4.6×250 mm) and a high-performance liquid chromatograph (manufactured by Shimadzu Corp., Prominence). Elution was performed at a flow rate of 0.8 mL/min for 30 minutes by a concentration gradient from a 4:6 mixed solution of a mobile phase A (10 mM potassium dihydrogen phosphate (pH 6.7), 10 mM tetrabutylammonium, and 0.25% methanol) and a mobile phase B (50 mM potassium dihydrogen phosphate (pH 6.7), 5.6 mM tetrabutylammonium, and 30% methanol) to the mobile phase B. The eluate was mixed with a scintillator (manufactured by PerkinElmer Co., Ltd., Ultima-Flo AP) at a 1:2 ratio, and the radioactivity of the produced [5-^3H]dUMP (RT 10.2 min) was measured using Radiomatic Flow Scintillation Analyzer (manufactured by PerkinElmer Co., Ltd., 525TR).
The inhibitory activity of the test compound was determined according to the formula shown below.

Sequence of human dUTPase (P33316 94-252): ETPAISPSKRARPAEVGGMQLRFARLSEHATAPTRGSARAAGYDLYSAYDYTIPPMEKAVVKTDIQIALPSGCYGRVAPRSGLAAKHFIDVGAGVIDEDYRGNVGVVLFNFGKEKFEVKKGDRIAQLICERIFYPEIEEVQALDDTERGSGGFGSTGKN

For the molecule `C[C@@H](NS(=O)(=O)CCCOCn1ccc(=O)[nH]c1=O)c1cccc(OC2CCOCC2)c1` [Example 47, (R)-3-((2,4-dioxo-3,4-dihydropyrimidin-1(2H)-yl)methoxy)-N-(1-(3-(tetrahydro-2H-pyran-4-yloxy)phenyl)ethyl)propane-1-sulfonamide], the IC50 was 210 nM.
Take `C[C@@H](NS(=O)(=O)CCCOCn1ccc(=O)[nH]c1=O)c1ccc(F)c(OC2CCOCC2)c1` [Example 48, (R)-3-((2,4-dioxo-3,4-dihydropyrimidin-1(2H)-yl)methoxy)-N-(1-(4-fluoro-3-(tetrahydro-2H-pyran-4-yloxy)phenyl)ethyl)propane-1-sulfonamide]: it took 140 nM to reach half-maximal inhibition (IC50).
For the molecule `C[C@@H](NS(=O)(=O)CCCOCn1ccc(=O)[nH]c1=O)c1cccc(O[C@H]2CCOC2)c1` [Example 49, 3-((2,4-dioxo-3,4-dihydropyrimidin-1(2H)-yl)methoxy)-N—((R)-1-(3-((S)-tetrahydrofuran-3-yloxy)phenyl)ethyl)propane-1-sulfonamide], the IC50 is 940 nM.
In turn, `C[C@@H](NS(=O)(=O)CCCOCn1ccc(=O)[nH]c1=O)c1cccc(OC(F)(F)C(F)F)c1` [Example 51, (R)-3-((2,4-dioxo-3,4-dihydropyrimidin-1(2H)-yl)methoxy)-N-(1-(3-(1,1,2,2-tetrafluoroethoxy)phenyl)ethyl)propane-1-sulfonamide] registered a 50% inhibitory concentration (IC50) of 830 nM.
For `C[C@@H](NS(=O)(=O)CCCOCn1ccc(=O)[nH]c1=O)c1cccc(OCC(C)(C)C)c1` [Example 52, (R)-3-((2,4-dioxo-3,4-dihydropyrimidin-1(2H)-yl)methoxy)-N-(1-(3-(neopentyloxy)phenyl)ethyl)propane-1-sulfonamide], the IC50 was 510 nM.
`C[C@@H](NS(=O)(=O)CCCOCn1ccc(=O)[nH]c1=O)c1cccc(OCC(F)(F)F)c1` [Example 53, (R)-3-((2,4-dioxo-3,4-dihydropyrimidin-1(2H)-yl)methoxy)-N-(1-(3-(2,2,2-trifluoroethoxy)phenyl)ethyl)propane-1-sulfonamide] registered an IC50 of 230 nM.
In the case of `C[C@@H](NS(=O)(=O)CCCOCn1ccc(=O)[nH]c1=O)c1ccc(F)c(OCC(F)(F)F)c1` [Example 54, (R)-3-((2,4-dioxo-3,4-dihydropyrimidin-1(2H)-yl)methoxy)-N-(1-(4-fluoro-3-(2,2,2-trifluoroethoxy)phenyl)ethyl)propane-1-sulfonamide], the IC50 is 230 nM.
With `C[C@@H](NS(=O)(=O)CCCOCn1ccc(=O)[nH]c1=O)c1cccc(OC(F)(F)C(F)(F)F)c1` [Example 55, (R)-3-((2,4-dioxo-3,4-dihydropyrimidin-1(2H)-yl)methoxy)-N-(1-(3-(perfluoroethoxy)phenyl)ethyl)propane-1-sulfonamide] the figure was 410 nM; with `C[C@@H](NS(=O)(=O)CCCOCn1ccc(=O)[nH]c1=O)c1cccc(OC(CF)CF)c1` [Example 56, (R)—N-(1-(3-(1,3-difluoropropan-2-yloxy)phenyl)ethyl)-3-((2,4-dioxo-3,4-dihydropyrimidin-1(2H)-yl)methoxy)propane-1-sulfonamide], 850 nM.
As to `C#CCOc1cccc([C@@H](C)NS(=O)(=O)CCCOCn2ccc(=O)[nH]c2=O)c1` [Example 57, (R)-3-((2,4-dioxo-3,4-dihydropyrimidin-1(2H)-yl)methoxy)-N-(1-(3-(prop-2-ynyloxy)phenyl)ethyl)propane-1-sulfonamide], the midpoint of inhibition, the IC50, lay at 1180 nM.
In the case of `CC(C)COc1cccc([C@@H](C)NS(=O)(=O)CCCOCn2ccc(=O)[nH]c2=O)c1` [Example 58, (R)-3-((2,4-dioxo-3,4-dihydropyrimidin-1(2H)-yl)methoxy)-N-(1-(3-isobutoxyphenyl)ethyl)propane-1-sulfonamide], it took 310 nM to reach half-maximal inhibition (IC50).
In turn, `CC[C@H](C)COc1cccc([C@@H](C)NS(=O)(=O)CCCOCn2ccc(=O)[nH]c2=O)c1` [Example 59, 3-((2,4-dioxo-3,4-dihydropyrimidin-1(2H)-yl)methoxy)-N—((R)-1-(3-((S)-2-methylbutoxy)phenyl)ethyl)propane-1-sulfonamide] gave an IC50 of 720 nM.
As for `C[C@@H](NS(=O)(=O)CCCOCn1ccc(=O)[nH]c1=O)c1cccc(OCC2(C)CC2)c1` [Example 60, (R)-3-((2,4-dioxo-3,4-dihydropyrimidin-1(2H)-yl)methoxy)-N-(1-(3-((1-methylcyclopropyl)methoxy)phenyl)ethyl)propane-1-sulfonamide], half-maximal inhibition (IC50) was put at 490 nM.
`C[C@@H](NS(=O)(=O)CCCOCn1ccc(=O)[nH]c1=O)c1cccc(OCC(F)F)c1` [Example 61, (R)—N-(1-(3-(2,2-difluoroethoxy)phenyl)ethyl)-3-((2,4-dioxo-3,4-dihydropyrimidin-1(2H)-yl)methoxy)propane-1-sulfonamide] displayed an IC50 of 140 nM.
`C#C[C@H](C)Oc1cccc([C@@H](C)NS(=O)(=O)CCCOCn2ccc(=O)[nH]c2=O)c1` [Example 62, N—((R)-1-(3-((S)-but-3-yn-2-yloxy)phenyl)ethyl)-3-((2,4-dioxo-3,4-dihydropyrimidin-1(2H)-yl)methoxy)propane-1-sulfonamide]: the midpoint of inhibition, the IC50, lay at 370 nM.
With `C#C[C@@H](C)Oc1cccc([C@@H](C)NS(=O)(=O)CCCOCn2ccc(=O)[nH]c2=O)c1` [Example 63, N—((R)-1-(3-((R)-but-3-yn-2-yloxy)phenyl)ethyl)-3-((2,4-dioxo-3,4-dihydropyrimidin-1(2H)-yl)methoxy)propane-1-sulfonamide], the IC50 was 470 nM.
In turn, `C[C@@H](NS(=O)(=O)CCCOCn1ccc(=O)[nH]c1=O)c1cccc(OCC2CCCC2)c1` [Example 65, (R)—N-(1-(3-(cyclopentylmethoxy)phenyl)ethyl)-3-((2,4-dioxo-3,4-dihydropyrimidin-1(2H)-yl)methoxy)propane-1-sulfonamide] came in with an IC50 of 1000 nM.
For the molecule `CC[C@@H](C)Oc1cccc([C@@H](C)NS(=O)(=O)CCCOCn2ccc(=O)[nH]c2=O)c1` [Example 66, N—((R)-1-(3-((R)-1-methylpropoxy)phenyl)ethyl)-3-((2,4-dioxo-3,4-dihydropyrimidin-1(2H)-yl)methoxy)propane-1-sulfonamide], the IC50 amounted to 460 nM.
In turn, `CC[C@H](C)Oc1cccc([C@@H](C)NS(=O)(=O)CCCOCn2ccc(=O)[nH]c2=O)c1` [Example 67, N—((R)-1-(3-((s)-1-methylpropoxy)phenyl)ethyl)-3-((2,4-dioxo-3,4-dihydropyrimidin-1(2H)-yl)methoxy)propane-1-sulfonamide] yielded an IC50 of 430 nM.
With `C[C@@H](NS(=O)(=O)CCCOCn1ccc(=O)[nH]c1=O)c1ccc(F)c(OCC(F)F)c1` [Example 68, (R)—N-(1-(3-(2,2-difluoroethoxy)-4-fluorophenyl)ethyl)-3-((2,4-dioxo-3,4-dihydropyrimidin-1(2H)-yl)methoxy)propane-1-sulfonamide] the figure was 110 nM; with `C=CCOc1cccc([C@@H](C)NS(=O)(=O)CCCOCn2ccc(=O)[nH]c2=O)c1` [Example 69, (R)—N-(1-(3-(allyloxy)phenyl)ethyl)-3-((2,4-dioxo-3,4-dihydropyrimidin-1(2H)-yl)methoxy)propane-1-sulfonamide], 740 nM; with `CCC[C@H](C)Oc1cccc([C@@H](C)NS(=O)(=O)CCCOCn2ccc(=O)[nH]c2=O)c1` [Example 70, 3-((2,4-dioxo-3,4-dihydropyrimidin-1(2H)-yl)methoxy)-N—((R)-1-(3-((S)-pentan-2-yloxy)phenyl)ethyl)propane-1-sulfonamide], 760 nM.
